Consider 2 molecules from patent US10004711B2, “Methods and compositions comprising 10-hydroxy-2-decenoic acid” (DSM IP ASSETS B.V., priority 2014, dated 2018).

The nature of assay [1]: Weight after Barnes maze psychological stress (Example 9). The assay is classed as in vivo, rat. The note with it: for % Change (Weight after Barnes maze): DHA 0.07% weight of diet. How it is done:
Aged male rats were fed 10-Hydroxy-2-decenoic acid (QBA) for approximately […] from 12-months to 20-months of age and the weight of rats was recorded (N=11-14 per group). During the last month of QBA feeding animals were subjected to the psychological stress of the Barnes maze.

In assay [2] the test system is 19-20 month-old male rats. Description: Elevated plus-maze, rats fed QBA alone or QBA+DHA. It is filed as in vivo, rat. The note with it: QBA 0, DHA 0.07% weight of diet. How it is done:
Rats were fed QBA and subjected to an elevated plus-maze. The elevated plus-maze was elevated ˜85 cm above the floor and consisted of two open and two closed arms of the same size (50×10 cm). The closed arms were surrounded by walls 40 cm high, and the arms were constructed of black acrylic slabs that radiated from a central platform (10×10 cm) to form a plus sign. Each rat was placed in the central platform facing one of the open arms, and its behavior was recorded during a 5-min testing period with video capture software. More time spent in the open arms is an indication of reduced anxiety-like state. Rats were tested at 18 months old (N=11-13 per group).
The dose-response characteristics of 10-Hydroxy-2-decenoic acid's (QBA's) in combination with DHA for potential brain health benefits during aging were assessed for mood in 19-20 month-old male rats (N=11-14 per group). Rats were fed QBA alone or QBA+DHA and subjected to an elevated plus-maze.

The nature of assay [3]: Body weight of aged male rats fed QBA and/or DHA (Example 8). It is filed as in vivo, rat. Particulars: DHA 0.07% weight of diet.
Test in assay [4]: as above
It is filed as in vivo, rat. The note with it: DHA 0.07% weight of diet. The method, then: Aged male rats were fed 10-Hydroxy-2-decenoic acid (QBA) for approximately […] from 12-months to 20-months of age and the weight of rats was recorded.
This is another data set of the same source.

Assay [5] relates to RAW264.7 mouse macrophage cell line. Description: TNFα levels after LPS stimulation. The assay is classed as cell-based. The note with it: Dexamethasone, concentration not given; LPS 100 ng/mL; 24 h. How it is done: (§1) Cultures of the RAW264.7 mouse macrophage cell line were pre-treated with 10-Hydroxy-2-decenoic acid (QBA) for 1 hour prior to stimulation with lipopolysaccharide (LPS, 100 ng/mL). After 24 hours of incubation, interleukin […] (IL-1β) and tumor necrosis factor-α (TNFα) levels were determined by Luminex technology and cell numbers were measured using Alamar Blue. Results are given as a ratio of cytokine concentration/cell number.

For assay [6] the test system is unchanged. Description: IL-1β levels after LPS stimulation. The assay is classed as cell-based. The note with it: Dexamethasone, concentration not given; LPS 100 ng/mL; 24 h. The method, then:
as §1

Turning to `CC/C=C\C/C=C\C/C=C\C/C=C\C/C=C\C/C=C\CCC(=O)O` [DHA, all-cis-docosa-4,7,10,13,16,19-hexaenoic acid], the “% Change (Weight after Barnes maze)” value is given as −0.76% in assay [1] (behavior stress day 7); −0.57% in assay [1] (behavior stress day 14); −0.88% in assay [1] (behavior stress day 21); −0.56% in assay [1] (behavior stress day 28); −0.23% in assay [1] (behavior stress day 35). In addition, the “weight loss associated with the psychological stress” value in assay [1] (summary of Table 15) was “did not produce the same results”. In addition, the “Time (s) in Open Arm” value in assay [2] came out at 32.4 s. Further, the “Avg Wt” value in assay [3] (study day 60) came out at 614.6 g; in assay [3] (study day 130), 635.2 g; in assay [3] (study day 144), 632.5 g; in assay [4] (study day 0), 552.9 g; in assay [4] (study day 4), 568.8 g; in assay [4] (study day 11) it was 579.8 g. In addition, the “Avg Wt” value was 592.4 g in assay [4] (study day 18); 594.4 g in assay [4] (study day 25); 600.5 g in assay [4] (study day 32); 605.1 g in assay [4] (study day 39); 607.2 g in assay [4] (study day 46); 610.6 g in assay [4] (study day 53). Moreover, the “Avg Wt” value in assay [4] (study day 67) is on record as 616.2 g; in assay [4] (study day 74), 617.6 g; in assay [4] (study day 81), 619.7 g; in assay [4] (study day 88), 623.2 g; in assay [4] (study day 95), 624.8 g; in assay [4] (study day 102), 629.4 g. Besides, the “Avg Wt” value is recorded as 632.9 g in assay [4] (study day 109); 636.3 g in assay [4] (study day 116); 631.2 g in assay [4] (study day 123); 633.1 g in assay [4] (study day 137); 634.6 g in assay [4] (study day 151).

As for `C[C@@H]1C[C@H]2[C@@H]3CCC4=CC(=O)C=C[C@]4(C)[C@@]3(F)[C@@H](O)C[C@]2(C)[C@@]1(O)C(=O)CO` [Dexamethasone, reference compound], in assay [5], the “TNFα (pg/mL)/Cell Numbers” value is on record as 0.153 (pg/mL)/Cell Numbers. The “IL-1β (pg/mL)/Cell Numbers” value in assay [6] was 0.0013 (pg/mL)/Cell Numbers.
